Like-named read-outs stand apart in the source and are kept apart here.

Data set [1] is described as follows: Solubility in aqueous media. It is filed as physicochemical.
Data set [2] relates to LNCaP cells. The experiment in a line: Cellular uptake and internalization in LNCaP cells. The note with it: LNCaP, 24 h, 37 °C, 1 nM. It is filed as cell-based. As for the experimental part: LNCaP cells (1 × 10^5 cells/well) were seeded into 24-well plates and incubated for 72 h. Cells were treated with 1nM [^64Cu]Cu-NOTA-TP-PSMA or control monomers ([^64Cu]Cu-NOTA-TP and [^64Cu]Cu-NOTA-PSMA), each containing 0.1 MBq of radioactivity in RPMI-1640 medium.
Uptake and internalization were assessed at multiple time points (30 min to 24 h). At each timepoint, cells were washed with cold PBS, detached with trypsin, and counted using a hemocytometer. For internalization studies, surface-bound radioactivity was removed using 50 mM glycine-HCl buffer (pH 2.2) for 5 min, followed by additional PBS washes.
To investigate the internalization mechanism, parallel experiments were conducted at 4 °C to evaluate passive versus active uptake. Receptor specificity was assessed via blocking assays using 1 µM ^natCu-NOTA-TP-PSMA (1000-fold excess) co-incubated with 1 nM radiolabeled tracer. Post-incubation, intracellular radioactivity was quantified using a HIDEX gamma counter. All results were normalized to 10^6 cells and expressed as percent counts per minute per million cells (%CPM/10^6 cells).

The subject of data set [3] is HEK-293 cells. The experiment in a line: Efflux (retention) study in HEK-293 cells. It is filed as cell-based, human. The note with it: Table S3 second part (HEK-293). As for the experimental part:
(§1) Efflux studies were conducted by incubating the cells with the compound for an initial period of 1 h, after which the incubation medium was replaced with fresh, compound-free medium. The retained intracellular radioactivity was then measured at various time points up to 24 h and expressed as the percentage of retention relative to the 0-h time point, defined as the time immediately after medium replacement.

In data set [4] the test system is LNCaP cells. It counts as cell-based. As for the experimental part: (§2) The cytotoxicity of compounds 1–3, ^natCu-NOTA-TP-PSMA, and cisplatin (platinum-based drug) were assessed with PrestoBlue, a resazurin-based method to assess mitochondrial function in LNCaP and HEK-293 cells at 24, 48, and 72 h. Effective concentration (EC50) values summarized in Table 3 were calculated from the dose–response curves of each compound (Figure S7).
(§3) Cytotoxicity was evaluated using a resazurin-based assay (PrestoBlue) in 96-well plates. LNCaP (15,000 cells/well) and HEK-293 (10,000 cells/well) were seeded and incubated for 72 h. Cells were then treated with serial dilutions of [^64Cu]Cu-NOTA-TP-PSMA and controls for 24, 48, or 72 h. After treatment, cells were rinsed with PBS and incubated with PrestoBlue reagent for 40 min. Fluorescence was measured at 570 nm (excitation) and 610 nm (emission). Background readings from blank wells were subtracted. Cell viability was calculated relative to untreated controls. IC50 values were determined using dose–response curves. Controls included [^64Cu]Cu-NOTA-TP, [^64Cu]Cu-NOTA-PSMA, ^natCu-NOTA-TP-PSMA, and cisplatin (0–500 µM in 0.9% saline). All assays were performed in triplicate and all data presented in Results are the average of three independent experiments. TP conjugates were dissolved in 1% DMSO and diluted in saline. Inhibitory concentration 50 (IC50) values were calculated to quantify the effectiveness of the compounds.

Data set [5] deals with LNCaP cells. The experiment in a line: Efflux (retention) study in LNCaP cells. It counts as cell-based. As to conditions: Table S3 first part (LNCaP). As for the experimental part:
as §1

Data set [6] relates to HEK-293 cells. The experiment in a line: Nuclear localization in HEK-293 cells. It counts as cell-based, human. As for the experimental part: (§4) To assess nuclear localization, LNCaP and HEK-293 cells were incubated with 1 MBq of [^64Cu]Cu-NOTA-TP-PSMA 1 for 24, 48, and 72 h. Nuclear extraction was performed following a previously established protocol. Following incubation, cells were lysed and fractionated using cytoskeletal buffer to isolate nuclear components. Nuclear and cytoplasmic radioactivity were measured using a HIDEX automatic gamma counter. Data were used to evaluate time-dependent nuclear accumulation of the tracer.

Data set [7] deals with LNCaP cells. The experiment in a line: Nuclear localization in LNCaP cells. It is filed as cell-based. As for the experimental part:
as §4

In data set [8] the test system is HEK-293 cells. Nature of the data set: PrestoBlue cytotoxicity assay in HEK-293 cells. It counts as cell-based, human. As to conditions: read-out: EC50 HEK293. As for the experimental part:
as §2, §3

`O=C(O)CC[C@H](NC(=O)N[C@@H](CCCCNC(=O)[C@@H](Cc1ccc2ccccc2c1)NC(=O)C1CCC(CNC(=O)C(CCCCNC(=O)c2cc3[n+]4c(c2)-c2cccc[n+]2[Pt-2]4([Cl])[n+]2ccccc2-3)NC(=O)COCCOCCNC(=O)CN2CCN3CCN(CC2)CC(=O)[O][Cu][O]C(=O)C3)CC1)C(=O)O)C(=O)O` (stereo partly drawn) [^natCu-NOTA-TP-PSMA]: the solubility result in data set [1] is reported as “reduced solubility”.

In turn, `O=C(O)CC[C@H](NC(=O)N[C@@H](CCCCNC(=O)[C@@H](Cc1ccc2ccccc2c1)NC(=O)[C@H]1CC[C@H](CNC(=O)CNC(=O)COCCOCCNC(=O)CN2CCN(CC(=O)O)CCN(CC(=O)O)CC2)CC1)C(=O)O)C(=O)O` [[^64Cu]Cu-NOTA-PSMA 3, metal not drawn] showed an Internalization in data set [2] of 16.7 ± 1.6 %CPM/10^6 cells. The Uptake in data set [2] was 22.8 ± 1.2 %CPM/10^6 cells. Moreover, the Retained activity in data set [3] (0 h after medium replacement) is 100 ± 0 %CPM/106 cells; in data set [3] (1 h), 59.4 ± 22.3 %CPM/106 cells; in data set [3] (2 h), 45.1 ± 14.5 %CPM/106 cells; in data set [3] (4 h) it was 38.4 ± 4.1 %CPM/106 cells; in data set [3] (24 h), 22.0 ± 1.5 %CPM/106 cells; in data set [5] (0 h after medium replacement), 100 ± 0 %CPM/106 cells. The Retained activity worked out at 54.8 ± 10.0 %CPM/106 cells in data set [5] (1 h), 49.6 ± 8.1 %CPM/106 cells in data set [5] (2 h), 46.6 ± 8.1 %CPM/106 cells in data set [5] (4 h) and 39.2 ± 7.9 %CPM/106 cells in data set [5] (24 h). For the same compound, the “fold less cytotoxic than compound 1” value in data set [4] is 5–16 fold. The “nuclear uptake in HEK-293 cells” value in data set [6] (48 h) turned out to be 0.13 ± 0.05%; in data set [6] (72 h), 0.23 ± 0.04%. Further, the “Nuclear uptake HEK-293” value came out at 0.07 ± 0.05 %ID/10⁶ cells in data set [6] (Table S4, 24 h); 0.13 ± 0.05 %ID/10⁶ cells in data set [6] (Table S4, 48 h); 0.23 ± 0.04 %ID/10⁶ cells in data set [6] (Table S4, 72 h). In addition, the “nuclear uptake fold difference LNCaP vs HEK-293” value was determined as 5.8 fold in data set [7] (24 h) and 1.5 fold in data set [7] (72 h). The “nuclear uptake in LNCaP cells” value in data set [7] (48 h) turned out to be 0.30 ± 0.13%; in data set [7] (72 h), 0.35 ± 0.07%. The “Nuclear uptake LNCaP” value was found to be 0.44 ± 0.25 %ID/10⁶ cells in data set [7] (Table S4, 24 h); 0.77 ± 1.02 %ID/10⁶ cells in data set [7] (Table S4, 48 h); 0.35 ± 0.07 %ID/10⁶ cells in data set [7] (Table S4, 72 h).

For the compound `O=C(O)CC[C@H](NC(=O)N[C@@H](CCCCNC(=O)[C@@H](Cc1ccc2ccccc2c1)NC(=O)[C@H]1CC[C@H](CNC(=O)CNC(=O)COCCOCCNC(=O)CN2CCN(CC(=O)O)CCN(CC(=O)O)CC2)CC1)C(=O)O)C(=O)O` [^natCu-NOTA-PSMA, metal not drawn], the solubility result in data set [1] was “readily soluble in aqueous media”.

For orientation: EC50 means the concentration that produces a half-maximal response. For the compound `N.N.[Cl][Pt][Cl]` [Cisplatin, cisplatin, reference compound], the half-maximal effective concentration (EC50) came out at 81 µM in data set [4] (24 h); 30.4 µM in data set [4] (48 h); 22.9 µM in data set [4] (72 h); 31.3 µM in data set [8] (24 h); 41 µM in data set [8] (48 h); 27.5 µM in data set [8] (72 h).

The values are drawn from paper PMC12692291, “Development and In Vitro Evaluation of [^64Cu]Cu-NOTA-TP-PSMA, a Novel Radiotheranostic Agent Against Prostate Cancer” (International Journal of Molecular Sciences, 2025).
